Values quoted from earlier work as cited in patent publication US20100047803A1, “BIOMARKERS FOR ACETAMINOPHEN TOXICITY” (priority 2008, published 2010).

Tests used:
[1] = administration after hepatic failure has developed
[2] = test system: CYP2E1, CYP1A2, and CYP3A4; conditions: by CYP2E1, CYP1A2, and CYP3A4

Row | share of acetaminophen converted to NAPQI [2] | SMILES | reduction in mortality [1]
1 | – | CC(=O)N[C@@H](CS)C(=O)O [N-acetylcysteine] | 21-28%
2 | 5 to 9% | CC(=O)Nc1ccc(O)cc1 [acetaminophen, Acetaminophen] | –
